Laboratory results as given in patent US9782452B2, “Methods for stimulating hematopoietic recovery by inhibiting TGFβ signaling” (Cornell University, priority 2011, dated 2017).
Entries after “also recorded” stand apart in the source; their conditions may differ.

What was measured:
Type in all cases: in vivo, mouse
[1] = test system: LKS+ HSPCs; assay: Multidimensional flow cytometry of BM HSPC regeneration after 5FU; settings: 1 mg/kg IP 6 times over 9 days, vs control
Description: (§1) Mice were killed by CO2 asphyxiation and femur, tibia and humeri were dissected free of muscle and tendons and then crushed in DMEM using a mortar and pestle. The resulting cell suspension was filtered through a 70-μm filter and washed in PEB (2 mM EDTA, 0.2% BSA in PBS pH 7.4). Spleens were isolated and then minced prior to grinding through a 70-μm filter to generate single cell suspensions. Lineage negative (Lin^−) cells were purified using a biotinylated lineage cell detection cocktail (Miltenyi Biotec). Lineage depleted cells were then stained with streptavidin-Qdot 605 (eBioscience), Horizon V450-conjugated anti-CD117 (BD Biosciences), PECy7-conjugated Sca-1 (BioLegend), Alexa700-conjugated CD34 (BD Biosciences), APC-conjugated CD135 (Flk2) (BioLegend), and PerCP/Cy5.5-conjugated CD16/32 (FcR). Hematopoietic populations were identified as following: LT-HSCs, LKS^+ CD34^−Flk2^−; ST-HSCs, LKS^+ CD34^+ Flk2^−; MPPs, LKS^+ CD34^+ Flk2^+; CMPs, LKS^− CD34^+ FcRlow; GMPs, LKS^− CD34^+ FcR^+; and MEPs, LKS^− CD34^− FcR^− MEPs. DAPI was used to exclude dead cells during flow cytometric analysis. […] The cell cycle status of LKS^+SLAM cells was analyzed using this same strategy. Analysis gates were set based upon the fluorescence minus one (FMO) fluorophore. […]

[2] = test system: C57BL/6J mice; assay: Blood count recovery after myelosuppressive 5FU chemotherapy
Description: The inventors used 5FU (250 mg/kg, 1 i.p.) for C57BL/6J mice, or 5FU 150 mg/kg (1 i.p.) for mice that had been previously transplanted. To assess blood count recovery, the inventors collected peripheral blood (50 μl) into EDTA-coated capillary tubes (Fisher Scientific). Differential blood counts were measured using an automated Bayer ADVIA 120 Multispecies Hematology Analyzer calibrated for murine blood (Bayer HealthCare).
The inventors treated cohorts of mice with 5FU (250 mg/kg) on day 0 and then with either the TGFβ-neutralizing antibody 1D11 (I) (10 mg/kg) or a non-targeted control antibody 13C4 (C) (10 mg/kg) on days 5, 7 and 9. The 1D11 and 13C4 antibodies were generously provided by Genzyme Corp., Framingham, Mass., USA. Mice were treated with 5FU (250 mg/kg) on day 0 and then received either LY364947 (1 mg/kg, i.p.) or an equal volume of PBS six times over a period of 9 days. Hematopoietic reconstitution was followed by monitoring peripheral blood counts and multidimensional flow cytometry on bone marrow and spleen cells, as indicated.

[3] = test system: LKS+ HSPCs and LKS+SLAM cells; assay: Bi-dimensional cell cycle analysis of BM HSPCs after 5FU; settings: D15 after 5FU, 1 mg/kg IP 6 times over 9 days; vs 5FU only
Description: as §1

[4] = 5FU 250 mg/kg D0, 1 mg/kg IP 6 times over 9 days, vs PBS

c1ccc(-c2[nH]ncc2-c2ccnc3ccccc23)nc1 [LY364947]
expansion of LKS+SLAM cells [1]: greater expansion
PLT recovery [2, 4]: faster
WBC recovery [2, 4]: faster
blood counts recovery ([2]; after 5FU, vs vehicle control): recovered blood counts more rapidly
cycling of LKS+ and LKS+SLAM cells [3]: prolonged cycling; also recorded: persisted in cycle
